Holding throughout (format): in vivo
The test system of experiment [1] is Colletotrichum gloeosporioides (Cg). Kind of experiment: Antifungal activity of vapor against Colletotrichum gloeosporioides in avocados. To be noted: Example 9, vapor of 3 mL in a Petri dish for 72 hours, 7 days of incubation. Here is the method: Example 7. The antifungal activity of AITC and DADS vapor against Colletotrichum gloeosporioides (Cg) was tested in avocados. All test pieces were wounded by removing the stem and infected by dispensing 1000 Cg spores suspended in 10 μL of water into the wound. The test groups consisted of avocados that were: untreated and uninfected; untreated and infected; treated by dipping in a solution of 0.1 g/L of prochloraz; exposed to the vapor of 3 mL of AITC disposed in a Petri dish; and exposed to the vapor of 3 mL of DADS disposed in a Petri dish. FIG. 9 quantifies the infection results. AITC vapor reduced the incidence of Cg mold by 97% compared to the untreated test group and 70% compared to the prochloraz treated test group. DADS vapor reduced the incidence of Cg mold by 60% compared to the untreated test group.
Example 8. The antifungal activity of a range of DADS vapor exposure times was tested against Cg in avocados. All test pieces were wounded by removing the stem and infected by dispensing 1000 Cg spores suspended in 10 μL of water into the wound. The test groups consisted of avocados that were: infected and untreated; and exposed to the vapor of 3 mL of DADS in a Petri dish for 24 hours, 48 hours, and 72 hours. FIG. 10 quantifies the infection results. Test group exposed to DADS vapor at all exposure times reduced the incidence of Cg mold compared to the untreated test group. A 24 hour DADS exposure reduced the incidence of Cg mold by 8%. A 48 hour DADS exposure reduced the incidence of Cg mold by 25%. A 72 hour DADS exposure reduced the incidence of Cg mold by 57%.
Example 9. The antifungal activity of a range of AITC and carvacrol vapor exposure times was tested against Cg in avocados. To measure the effect of the various treatments on ripening, durometer shore was taken after 7 days of incubation at ambient temperature and high humidity. All samples were wounded by removing the stem and infected by dispensing 1000 Cg spores suspended in 10 μL of water in the wound. The test groups consisted of avocados that were: infected and left untreated on the benchtop; infected and left untreated under a fume hood; exposed to the vapor of 3 mL of AITC in a Petri dish for 24 hours, 48 hours, and 72 hours; and exposed to the vapor of 3 mL of carvacrol in a Petri dish for 72 hours. FIG. 11 quantifies the infection results. […] All exposure times to AITC vapor reduced the incidence of Cg mold compared to the untreated samples. A 24 hour AITC exposure reduced the incidence of Cg mold by 90%. A 48 hour AITC exposure reduced the incidence of Cg mold by 97%. A 72 hour AITC exposure reduced the incidence of Cg mold by 83%. […]
Example 21. The antifungal activity of avocados exposed to AITC vapor and prochloraz was tested against Cg in avocados. To measure the effect of the various treatments on ripening, durometer shore was taken after 5 days of incubation at ambient temperature (about 20° C. to about 25° C.) and high humidity (about 88% relative humidity to about 93% relative humidity). All samples were wounded by removing the stem and infected by dispensing 1000 Cg spores suspended in 10 μL of water in the wound. Exposure to vapor was done by placing the avocados in an airtight container, dispensing AITC onto Whatman filter paper discs, suspending the discs in front of a battery-powered fan, closing the container and incubating the avocados for 30 minutes. After vapor exposure, the avocados were left at ambient temperature, high humidity, and assessed for Cg mold on day 5. Treatment groups consisted of avocados that were: exposed for 30 minutes to the vapor of 125 μL of AITC disposed on a filter paper disc; dipped in a solution of 0.1 g/L of prochloraz and placed to dry on a rack in front of a fan for 30 min; infected and left untreated; and uninfected and untreated. […] To prepare the 0.1 g/L of prochloraz, 10 mg of prochloraz was mixed with 10 mL of ethanol and 90 mL of water. […] A 24 hour AITC exposure reduced the incidence of Cg mold by 90%. […]

Experiment [2] has as its system Penicillium digitatum (Pd). Nature of the experiment: Antifungal activity of vapor against Penicillium digitatum in wounded, infected mandarins. To be noted: vapor of 62.5 μL AITC and/or 125 μL of all other compounds for 30 minutes, assessed after 6 days.
A further experiment relates to avocados. Kind of experiment: Durometer shore (ripening/firmness) of treated avocados. To be noted: Example 21; Cg-infected avocados; after 5 days; AITC 125 μL vapor 30 minutes, prochloraz 0.1 g/L dip. Here is the method:
Example 9. The antifungal activity of a range of AITC and carvacrol vapor exposure times was tested against Cg in avocados. To measure the effect of the various treatments on ripening, durometer shore was taken after 7 days of incubation at ambient temperature and high humidity. All samples were wounded by removing the stem and infected by dispensing 1000 Cg spores suspended in 10 μL of water in the wound. The test groups consisted of avocados that were: infected and left untreated on the benchtop; infected and left untreated under a fume hood; exposed to the vapor of 3 mL of AITC in a Petri dish for 24 hours, 48 hours, and 72 hours; and exposed to the vapor of 3 mL of carvacrol in a Petri dish for 72 hours. FIG. 11 quantifies the infection results. […] All exposure times to AITC vapor reduced the incidence of Cg mold compared to the untreated samples. A 24 hour AITC exposure reduced the incidence of Cg mold by 90%. A 48 hour AITC exposure reduced the incidence of Cg mold by 97%. A 72 hour AITC exposure reduced the incidence of Cg mold by 83%.
Example 10. The antifungal activity of a range of AITC vapor exposure times were tested against Cg in avocados. To measure the effect of the various treatments on ripening, durometer shore was taken after 6 days of incubation at ambient temperature and high humidity. All samples were wounded by removing the stem and infected by dispensing 1000 Cg spores suspended in 10 μL of water in each wound. The test groups consisted of avocados that were: infected and left untreated on the benchtop; infected and left untreated in a fume hood; exposed to the vapor of 3 mL of AITC in a Petri dish for 24 hours, 48 hours, and 72 hours. FIG. 13 quantifies the infection results. […] All exposure times to AITC vapor reduced the incidence of Cg mold compared to the untreated samples.
Example 21. The antifungal activity of avocados exposed to AITC vapor and prochloraz was tested against Cg in avocados. To measure the effect of the various treatments on ripening, durometer shore was taken after 5 days of incubation at ambient temperature (about 20° C. to about 25° C.) and high humidity (about 88% relative humidity to about 93% relative humidity). All samples were wounded by removing the stem and infected by dispensing 1000 Cg spores suspended in 10 μL of water in the wound. Exposure to vapor was done by placing the avocados in an airtight container, dispensing AITC onto Whatman filter paper discs, suspending the discs in front of a battery-powered fan, closing the container and incubating the avocados for 30 minutes. After vapor exposure, the avocados were left at ambient temperature, high humidity, and assessed for Cg mold on day 5. Treatment groups consisted of avocados that were: exposed for 30 minutes to the vapor of 125 μL of AITC disposed on a filter paper disc; dipped in a solution of 0.1 g/L of prochloraz and placed to dry on a rack in front of a fan for 30 min; infected and left untreated; and uninfected and untreated. […] To prepare the 0.1 g/L of prochloraz, 10 mg of prochloraz was mixed with 10 mL of ethanol and 90 mL of water. […] A 24 hour AITC exposure reduced the incidence of Cg mold by 90%. […] The mean shore value for the untreated avocados was 28.8 (standard deviation (SD)=10.8). The mean shore value for the infected avocados was 47.3 (SD=11.8). The mean shore value of the positive control, prochloraz treated avocados was 44.3 (SD=14.7). The mean shore value of the AITC treated avocados was 61.1 (SD=10.5).
Durometer Shore Measurement: A Fruit Hardness Tester—HPE III Fff w/Sphere Ø 5.0 mm Test Anvil is used for the measurements. The Operating Procedure is as follows: • 1) At room temperature and 1 atm pressure, switch on the measuring device and press the hull or sleeve against the specimen so that the contact surface of the pressure plate rests on the fruit. […]

In the case of `Cc1ccc(C(C)C)cc1O` [carvacrol], in experiment [1], the “reduction of the incidence of Cg mold” value is listed as “did not reduce the incidence of Cg mold”.

`C=CCc1ccc(O)c(OC)c1` [eugenol]: the “performance against Pd compared with untreated samples” value in experiment [2] is listed as “performed better than the untreated samples”. For the compound `CCCN(CCOc1c(Cl)cc(Cl)cc1Cl)C(=O)n1ccnc1` [prochloraz, reference compound], in the experiment with avocados, the mean shore value is recorded as 44.3 (SD=14.7) shore.

The values above are taken from US20250204541A1, “GAS PHASE TREATMENT OF PRODUCE” (priority 2022, published 2025).
